Results reported in patent US4707481A, “Pyridazinones, their preparation and use, and bronchospasmolytic medicaments containing pyridazinones” (BYK Gulden Lomberg Chemische Fabrik GmbH, priority 1983, dated 1987).
Read-outs that look alike come from different tables or passages of the source.

Assays:
[1] = toxicity studies, mouse p.o.; settings: in vivo, po; for LD50 at 168 h: Column F, mouse p.o., 7 days observation, read-out: Approximate LD50; for tolerated dose: mouse, 10080 min
Experimental: The toxicity studies are carried out on female NMRI mice (body weight 23-30 g). The animals (5 animals per dose) receive food and water ad libitum. Various doses of the substances are administered once as a suspension in methocel via a gavage. The period of observation lasts 7 days. The tolerated dose (TD), that is to say the highest dose at which as yet none of the animals die, is determined by observation. The average lethal dose (LD50), that is to say the dose at which 50% of the animals die, is determined from the dose/action curve by means of linear regression.

[2] = test system: chain of tracheal rings of guinea pigs; assay: relaxing action on chain of tracheal rings in vitro (bronchospasmolytic action); parameters: species or system guinea pig; settings: for EC50: Cavia porcellus, Column A, negative logarithm of EC50 in mol/l, 50% of maximum relaxation by (-)isoprenaline, read-out: -lg[EC50] trachea (converted); for [EC40 pot.] left atrium / [EC50] trachea: Column C, measure of organ-selective activity; for [EC50] theophylline / [EC50] substance: Column D, trachea
[3] = test system: electrically stimulated left atrium of rats; assay: positive inotropic action on electrically stimulated left atrium in vitro; parameters: species or system rat; settings: for [EC40 pot.] theophylline / [EC40 pot.] substance: Column E, left atrium; for EC40: Rattus norvegicus, Column B, negative logarithm of EC40pot in mol/l, 40% increase in contraction force, read-out: -lg[EC40 pot.] left atrium (converted)
[4] = test system: right ventricle of guinea pigs; assay: heart function dP/dtmax, right ventricle of anesthetized guinea pigs; assay type: in vivo, guinea pig
Experimental: The effect of the substances on the contractility of the heart of guinea pigs is tested on animals (.male., 400 to 1000 g) under urethane anesthesia. The change in pressure in the right ventricle of the heart is measured with a tip catheter introduced through the right jugular vein and the maximum rate of pressure rise (dP/dtmax) is determined from this. The heart rate is derived from the pressure waves. […] The test substances were administered intravenously. 5-7 animals were used for each measurement, and the arithmetic mean was calculated from the results.

[5] = test system: acetylcholine-induced bronchospasm; assay: protective effect against acetylcholine-induced bronchospasm in conscious guinea pigs; assay type: in vivo, guinea pig; settings: for Doubling of the latency period / Tripling of the latency period: 30 min; for Tripling of the latency period: figure in parentheses
Experimental: The figure in parentheses indicates the number out of 10 animals in which the latency period more than tripled.
The latency period is to be understood to be the time from the start of acetylcholine-atomization until clear signs of asthma appeared.
The time from the start of atomization to the onset of clear respiratory exertion (in certain circumstances, hypoxic convulsion in the lateral position) is measured, and is denoted the latency period.
The test substance is administered orally by gavage (standard dose 100 μmol/kg, volume 1 ml of 4% strength methocel suspension in 0.9% strength sodium chloride solution/kg). […] Prolongation of the latency period to at least twice its length is regarded as a protective effect.

[6] = test system: guinea pig hearts isolated and perfused by the Langendorff method; assay: left-ventricular pressure and heart rate in isolated perfused Langendorff hearts; settings: for Emax: Cavia porcellus; for EC20 left-ventricular pressure: dose which leads to a 20% increase in left ventricular pressure
Excerpt: After the animals have been sacrificed by a blow to the neck and exsanguination through the carotid arteries, the thoracic cavity is opened, and the aorta is exposed and looped up with a thread. A cannula, which is attached by tubing to the apparatus from which the nutrient solution slowly drops, is introduced in the direction of the heart and the heart is, quickly after removal from the thorax, connected to the perfusion apparatus. A balloon probe, connected to a Statham pressure sensor, is advanced through a cut through the left atrium into the left ventricle, and is provided with an initial pressure of 40 mm Hg. […] The nutrient solution flowing freely from the coronary sinus into the right atrium is measured with a flow […]) and, together with the change in the left-ventricular pressure and the heart rate determined from this, is recorded on a Watanabe recorder. The substances are administered in a volume of 0.1 ml of nutrient solution, in the dosage indicated in Tab.

[7] = test system: histamine-induced bronchospasm; assay: inhibition of histamine-induced bronchospasm in anesthetized guinea pigs; assay type: in vivo, guinea pig; settings: for inhibition of histamine-induced bronchospasm, TVi / inhibition of histamine-induced bronchospasm, Vmaxe / inhibition of histamine-induced bronchospasm, Vmaxi: 20 μmol/kg i.v.
Experimental: A method for simultaneously recording pharmacodynamic and toxic effects on internal sensitive receptors, on the respiration and the cardiovascular system of guinea pigs was used [U. Kilian, E. Muller, E. Ch. […] To characterize the bronchospasm induced by histamine (0.09-0.18 μmol /kg i.v.), the maximum flow rate of the respiratory air during inspiration (Vmaxi) and expiration (Vmaxe) and the breath volume (BVi) were measured. A histamine spasm before administration of the substance was compared with several histamine spasms after administration of the substance. The test substances were administered intravenously (i.v.) and/or intrajejunally (i.j.). 5 to 10 animals were used per measurement, and the arithmetic mean was calculated from the results.

[8] = after 500 nMol, read-out: Emax left-ventricular pressure
[9] = at Emax, 500 nMol, read-out: Percentage increase in heart rate at Emax

Compound | LD50 at 168 h [1] | EC50 [2] | [EC40 pot.] left atrium / [EC50] trachea [2] | [EC50] theophylline / [EC50] substance [2] | [EC40 pot.] theophylline / [EC40 pot.] substance [3] | EC40 [3] | Percentage increase in heart rate at EC20 [6] | EC20 left-ventricular pressure [6] | other results
CCCOc1cc(-c2ccc(=O)[nH]n2)ccc1OC [Serial No. 10, 6-(4-methoxy-3-n-propoxyphenyl)-3[2H]pyridazinone] | 770 mg/kg | 0.468 µM | 1.3 | 288 | 661 | 0.631 µM | 9% | 40 nmol | Percentage change in dP/dtmax ([4]; 0.3 μmol/kg i.v., 0-10 min (Maximum)): 42%; Percentage change in dP/dtmax ([4]; 0.3 μmol/kg i.v., 10 min): 16%; Percentage change in dP/dtmax ([4]; 0.3 μmol/kg i.v., 30 min): 21%; Percentage change in dP/dtmax ([4]; 1 μmol/kg i.v., 0-10 min (Maximum)): 97%; Percentage change in dP/dtmax ([4]; 1 μmol/kg i.v., 10 min): 45%; Percentage change in dP/dtmax ([4]; 1 μmol/kg i.v., 30 min): 46%; Percentage change in dP/dtmax ([4]; 3 μmol/kg i.v., 0-10 min (Maximum)): 164%; Percentage change in dP/dtmax ([4]; 3 μmol/kg i.v., 10 min): 90%; Percentage change in dP/dtmax ([4]; 3 μmol/kg i.v., 30 min): 66%; Doubling of the latency period ([5]; 100 μmol/kg p.o.): 6 N of 10 animals; Tripling of the latency period ([5]; 100 μmol/kg p.o.): 6 N of 10 animals; Doubling of the latency period ([5]; 300 μmol/kg p.o.): 10 N of 10 animals; Tripling of the latency period ([5]; 300 μmol/kg p.o.): 8 N of 10 animals; protective effect compared with theophylline ([5]; result in words): greater protective effect; Emax [6, 8]: 61%; Emax [6, 9]: 19%
CCCOc1ccc(-c2ccc(=O)[nH]n2)cc1OC [compound 2] | 530 mg/kg | 0.417 µM | – | – | – | 7.24 µM | – | – | Emax ([6]; after 300 nMol, read-out: Emax left-ventricular pressure): 59%; Emax ([6]; at Emax, 300 nMol, read-out: Percentage increase in heart rate at Emax): 13%
C=CCOc1cc(-c2ccc(=O)[nH]n2)ccc1OC [compound 9] | 610 mg/kg | 0.537 µM | 2.3 | 251 | 331 | 1.26 µM | 7% | 50 nmol | Emax [6, 8]: 53%; Emax [6, 9]: 21%
CCCCOc1ccc(-c2ccc(=O)[nH]n2)cc1OC [Serial No. 3, 6-(4-n-butoxy-3-methoxyphenyl)-3[2H]pyridazinone] | – | 2.51 µM | 2.6 | 53.8 | 63.2 | 6.61 µM | – | – | tolerated dose [1]: > 761
COc1ccc(-c2ccc(=O)[nH]n2)cc1 [compound 19] | – | 8.91 µM | 19.1 | 15.1 | 4.7 | 170 µM | 6% | 160 nmol | tolerated dose [1]: > 400; Emax ([6]; after 1000 nMol, read-out: Emax left-ventricular pressure): 45%; Emax ([6]; at Emax, 1000 nMol, read-out: Percentage increase in heart rate at Emax): 11%
COc1ccc(-c2ccc(=O)[nH]n2)cc1OCCC(C)C [compound 12] | 960 mg/kg | 0.501 µM | 2000 | 269 | – | > 1000 µM | – | – | –
COc1ccc(-c2ccc(=O)[nH]n2)cc1OC(C)C [Serial No. 11, 6-(4-methoxy-3-isopropoxyphenyl)-3[2H]pyridazinone] | 600 mg/kg | 0.0977 µM | 10000 | 1370 | – | > 1000 µM | – | – | inhibition of histamine-induced bronchospasm, TVi ([7]; 2 min): 117%; inhibition of histamine-induced bronchospasm, Vmaxe ([7]; 2 min): 123%; inhibition of histamine-induced bronchospasm, Vmaxi ([7]; 2 min): 152%; inhibition of histamine-induced bronchospasm, TVi ([7]; 10 min): 84%; inhibition of histamine-induced bronchospasm, Vmaxe ([7]; 10 min): 109%; inhibition of histamine-induced bronchospasm, Vmaxi ([7]; 10 min): 113%; inhibition of histamine-induced bronchospasm, TVi ([7]; 20 min): 54%; inhibition of histamine-induced bronchospasm, Vmaxe ([7]; 20 min): 63%; inhibition of histamine-induced bronchospasm, Vmaxi ([7]; 20 min): 89%; inhibition of histamine-induced bronchospasm, TVi ([7]; 30 min): 38%; inhibition of histamine-induced bronchospasm, Vmaxe ([7]; 30 min): 43%; inhibition of histamine-induced bronchospasm, Vmaxi ([7]; 30 min): 47%; inhibition of histamine-induced bronchospasm, TVi ([7]; 60 min): 5%; inhibition of histamine-induced bronchospasm, Vmaxe ([7]; 60 min): 6%; inhibition of histamine-induced bronchospasm, Vmaxi ([7]; 60 min): 9%; inhibition of histamine-induced bronchospasm compared with theophylline ([7]; result in words): significantly more effective than theophylline
